In patent US9023789B2, “Amylin analogs and pharmaceutical compositions thereof” (Novo Nordisk A/S, priority 2012, dated 2015):
pIC50: −log10 of the molar value. Numbered stars: 1 amine (or outer) side, 2 acyl side, 3 side chain; on linkers, the order of the positions; unused ones are H or OH. Bridge positions count the residues as written; N and C are the ends. Side chains are listed from the residue outwards. Peptide text beside a SMILES is read from it. * marks the point of attachment. C20 diacid = O=C(O)CCCCCCCCCCCCCCCCCCC(=O)*; γGlu = O=C(O)[C@H](CCC(=O)[*:2])N[*:1]

Experiments:
[1] = target: T1, rat amylin receptor (rat calcitonin receptor + rat RAMP 3) (Rattus norvegicus, UniProt P32214+Q9JJ73); assay: ASSAY (VI) binding to the rat amylin receptor; conditions: for pIC50: binding to rat amylin receptor, read-out: rAmylin-R bind IC50
T1 construct: expressed in transfected cells; host or cells: BHK tk'ts 13 (transient, FuGENE 6), membranes
T1 sequence (P32214 25-479 isoform P32214-2 limits assumed): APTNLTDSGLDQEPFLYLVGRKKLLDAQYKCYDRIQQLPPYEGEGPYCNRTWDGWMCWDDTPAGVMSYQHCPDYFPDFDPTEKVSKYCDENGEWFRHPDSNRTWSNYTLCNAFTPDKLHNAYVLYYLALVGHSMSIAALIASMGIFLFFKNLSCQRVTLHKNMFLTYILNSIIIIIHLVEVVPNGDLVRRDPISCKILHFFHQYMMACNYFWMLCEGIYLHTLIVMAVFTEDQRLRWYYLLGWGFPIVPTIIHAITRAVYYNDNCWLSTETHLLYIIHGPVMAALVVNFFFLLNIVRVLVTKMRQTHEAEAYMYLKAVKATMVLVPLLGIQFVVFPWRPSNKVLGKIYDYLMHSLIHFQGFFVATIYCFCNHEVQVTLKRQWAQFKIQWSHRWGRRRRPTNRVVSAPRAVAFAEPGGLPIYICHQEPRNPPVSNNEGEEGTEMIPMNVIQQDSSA
T1 sequence (Q9JJ73 23-147 partner): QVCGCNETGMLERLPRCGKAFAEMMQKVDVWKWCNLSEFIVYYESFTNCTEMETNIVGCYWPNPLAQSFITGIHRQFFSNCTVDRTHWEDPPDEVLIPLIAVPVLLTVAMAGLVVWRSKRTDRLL
Method in brief: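 This assay measured binding to the rat amylin receptor. BHK tk′ts 13 cells were transiently transfected with the rat calcitonin receptor using FuGENE® 6 (Roche), following the manufacturer's recommendations. About 48 hours after transfection, the cells were harvested and membranes were prepared from them for the binding determination.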

[2] = target: T2, rat calcitonin receptor (Rattus norvegicus, UniProt P32214); assay: ASSAY (VIII) binding to the rat calcitonin receptor; conditions: Table 7, read-out: rCTR bind IC50
T2 construct: expressed in transfected cells; host or cells: BHK tk'ts 13 (transient, FuGENE 6), membranes
T2 sequence (P32214 25-479 isoform P32214-2 limits assumed): T1 sequence (P32214 25-479 isoform P32214-2 limits assumed)
Method in brief: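 Membranes were prepared from BHK tk′ts 13 cells transiently transfected with rat calcitonin receptor. Cells were grown in DMEM with 10% FBS and harvested approximately 48 hours after transfection.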

[3] = test system: Sprague Dawley (SD) rats; assay: ASSAY (I) efficacy testing on appetite (food intake) using an ad libitum fed rat model; assay type: in vivo; conditions: rat
Excerpt: Sprague Dawley (SD) rats from Taconic Europe, Denmark are used for the experiments. The rats have a body weight 200-250 g at the start of experiment. The rats arrive at least 10-14 days before start of experiment to allow acclimatization to experimental settings. During this period the animals are handled at least 2 times. After arrival rats are housed individually for one week in a reversed light/dark phase (meaning that lights are off during daytime and on during nighttime) for two weeks. Since rats are normally active and eat their major part of their daily food intake during the dark period, rats are dosed in the morning right before lights are turned off. This set-up results in the lowest data variation and highst test sensitivity. The experiment is conducted in the rats' home cages and rats have free access to food and water throughout the acclimatization period and the experiment period. Each dose of derivative is tested in a group of 5-8 rats. A vehicle group of 6-8 rats is included in each set of testing. Rats are dosed once according to body weight with a 0.01-3 mg/kg solution administered intraperitoneally (ip), orally (po) or subcutaneously (sc). The time of dosing is recorded for each group. After dosing, the rats are returned to their home cages, where they then have access to food and water. The food consumption is recorded individually continuously by online registration or manually every hour for 7 hours, and then after 24 h and sometimes 48 h. At the end of the experimental session, the animals are euthanized.
The individual data are recorded in Microsoft excel sheets. Outliers are excluded after applying the Grubbs statistical evaluation test for outliers, and the result is presented graphically using the GraphPad Prism program.

[4] = Table 7, rat binding selectivity, rCTR IC50 / rAmylin-R IC50
[5] = Table 7a (preferred compounds), rat binding selectivity, rCTR IC50 / rAmylin-R IC50
[6] = ratio of rCTR bind IC50 to rAmylin-R bind IC50

| Compound | pIC50 ([1]; Table 7) | Ratio rCT/rAmylin binding [1, 4] | Ratio rCT/rAmylin binding [1, 5] | Ratio rCT/rAmylin binding [1, 6] | pIC50 [2] | Food intake reduction 0-24 h 3 nmol/kg (%) ([3]; 3 nmol/kg, 0-24 h) | Food intake reduction 24-48 h 3 nmol/kg (%) ([3]; 3 nmol/kg, 24-48 h) | Food intake reduction 0-24 h 30 nmol/kg (%) ([3]; 0-24 h) | Food intake reduction 24-48 h 30 nmol/kg (%) ([3]; 24-48 h) |
| --- | --- | --- | --- | --- | --- | --- | --- | --- | --- |
| CC[C@H](C)[C@H](NC(=O)[C@H](C)NC(=O)CNC(=O)[C@H](Cc1ccccc1)NC(=O)[C@H](CC(N)=O)NC(=O)[C@@H]1CCCN1C(=O)[C@H](CO)NC(=O)[C@H](CO)NC(=O)[C@H](Cc1c[nH]cn1)NC(=O)[C@H](CCCNC(=N)N)NC(=O)[C@H](CC(C)C)NC(=O)[C@H](Cc1ccccc1)NC(=O)[C@H](CC(=O)O)NC(=O)[C@H](C)NC(=O)[C@H](CC(C)C)NC(=O)[C@H](CCCNC(=N)N)NC(=O)[C@H](CCC(N)=O)NC(=O)[C@@H](NC(=O)[C@H](C)NC(=O)[C@@H]1CSSC[C@H](NC(=O)[C@@H](N)CCCCNC(=O)CC[C@H](NC(=O)CC[C@H](NC(=O)CCCCCCCCCCCCCCCCCCC(=O)O)C(=O)O)C(=O)O)C(=O)N[C@@H](CC(N)=O)C(=O)N[C@@H]([C@@H](C)O)C(=O)N[C@@H](C)C(=O)N[C@@H]([C@@H](C)O)C(=O)N1)[C@@H](C)O)C(=O)N1CCC[C@H]1C(=O)N[C@@H](CO)C(=O)N[C@@H](CO)C(=O)N[C@H](C(=O)N[C@@H](CC(N)=O)C(=O)N[C@H](C(=O)NCC(=O)N[C@@H](CO)C(=O)N[C@@H](CC(=O)O)C(=O)N[C@H](C(=O)N[C@@H](Cc1ccc(O)cc1)C(N)=O)[C@@H](C)O)C(C)C)[C@@H](C)O [Example 2] (H-K([γGlu-γGlu-C20 diacid])CNTATCATQRLADFLRHSSPNFGAIPSSTNVGSDTY-NH2; disulfide 2-7; N-terminus assumed) | 9.53 | 365.7 | 365.7 | 365.7 | 6.97 | 39% | 10% | 72% | 62% |
| CC[C@H](C)[C@H](NC(=O)[C@H](C)NC(=O)CNC(=O)[C@H](Cc1ccccc1)NC(=O)[C@H](CC(N)=O)NC(=O)[C@@H]1CCCN1C(=O)[C@H](CO)NC(=O)[C@H](CO)NC(=O)[C@H](Cc1c[nH]cn1)NC(=O)[C@H](CCCNC(=N)N)NC(=O)[C@H](CC(C)C)NC(=O)[C@H](Cc1ccccc1)NC(=O)[C@H](CC(N)=O)NC(=O)[C@H](C)NC(=O)[C@H](CC(C)C)NC(=O)[C@H](CCCNC(=N)N)NC(=O)[C@H](CCC(N)=O)NC(=O)[C@@H](NC(=O)[C@H](C)NC(=O)[C@@H]1CSSC[C@H](NC(=O)[C@H](CCCCN)NC(=O)COCCOCCNC(=O)COCCOCCNC(=O)CC[C@H](NC(=O)CCCCCCCCCCCCCCCCCCC(=O)O)C(=O)O)C(=O)N[C@@H](CC(N)=O)C(=O)N[C@@H]([C@@H](C)O)C(=O)N[C@@H](C)C(=O)N[C@@H]([C@@H](C)O)C(=O)N1)[C@@H](C)O)C(=O)N1CCC[C@H]1C(=O)N[C@@H](CO)C(=O)N[C@@H](CO)C(=O)N[C@H](C(=O)N[C@@H](CC(N)=O)C(=O)N[C@H](C(=O)NCC(=O)N[C@@H](CO)C(=O)N[C@@H](CC(N)=O)C(=O)N[C@H](C(=O)N[C@@H](Cc1ccc(O)cc1)C(N)=O)[C@@H](C)O)C(C)C)[C@@H](C)O [Example 24] | 8.52 | 116.3 | 116.3 | 116.3 | 6.46 | – | – | 22% | 1% |
| CC[C@H](C)[C@H](NC(=O)[C@H](C)NC(=O)CNC(=O)[C@H](Cc1ccccc1)NC(=O)[C@H](CC(N)=O)NC(=O)[C@@H]1CCCN1C(=O)[C@H](CO)NC(=O)[C@H](CO)NC(=O)[C@H](Cc1c[nH]cn1)NC(=O)[C@H](CCCNC(=N)N)NC(=O)[C@H](CC(C)C)NC(=O)[C@H](Cc1ccccc1)NC(=O)[C@H](CC(N)=O)NC(=O)[C@H](C)NC(=O)[C@H](CC(C)C)NC(=O)[C@H](CCCNC(=N)N)NC(=O)[C@H](CCC(N)=O)NC(=O)[C@@H](NC(=O)[C@H](C)NC(=O)[C@@H]1CSSC[C@H](NC(=O)[C@H](CCCCN)NC(=O)CC[C@H](NC(=O)CCCCCCCCCCCCCCCCCCC(=O)O)C(=O)O)C(=O)N[C@@H](CC(N)=O)C(=O)N[C@@H]([C@@H](C)O)C(=O)N[C@@H](C)C(=O)N[C@@H]([C@@H](C)O)C(=O)N1)[C@@H](C)O)C(=O)N1CCC[C@H]1C(=O)N[C@@H](CO)C(=O)N[C@@H](CO)C(=O)N[C@H](C(=O)N1CCC[C@H]1C(=O)N[C@H](C(=O)NCC(=O)N[C@@H](CO)C(=O)N[C@@H](CCC(=O)O)C(=O)N[C@H](C(=O)N[C@@H](Cc1ccc(O)cc1)C(N)=O)[C@@H](C)O)C(C)C)[C@@H](C)O [Example 28] ({C20 diacid-γGlu}-KCNTATCATQRLANFLRHSSPNFGAIPSSTPVGSETY-NH2; disulfide 2-7 (inferred)) | 8.91 | 44.9 | 44.9 | 44.9 | 7.26 | – | – | 49% | 38% |

Continued, in another order:

| pIC50 ([1]; Table 7) | Ratio rCT/rAmylin binding [1, 4] | Ratio rCT/rAmylin binding [1, 5] | Ratio rCT/rAmylin binding [1, 6] | pIC50 [2] | Compound | Food intake reduction 0-24 h 3 nmol/kg (%) ([3]; 3 nmol/kg, 0-24 h) | Food intake reduction 24-48 h 3 nmol/kg (%) ([3]; 3 nmol/kg, 24-48 h) | Food intake reduction 0-24 h 30 nmol/kg (%) ([3]; 0-24 h) | Food intake reduction 24-48 h 30 nmol/kg (%) ([3]; 24-48 h) |
| --- | --- | --- | --- | --- | --- | --- | --- | --- | --- |
| 8.94 | 22.7 | 22.7 | 22.7 | 7.58 | CC[C@H](C)[C@H](NC(=O)[C@H](C)NC(=O)CNC(=O)[C@H](Cc1ccccc1)NC(=O)[C@H](CC(N)=O)NC(=O)[C@@H]1CCCN1C(=O)[C@H](CO)NC(=O)[C@H](CO)NC(=O)[C@H](Cc1c[nH]cn1)NC(=O)[C@H](CCCNC(=N)N)NC(=O)[C@H](CC(C)C)NC(=O)[C@H](Cc1ccccc1)NC(=O)[C@H](CCC(=O)O)NC(=O)[C@H](C)NC(=O)[C@H](CC(C)C)NC(=O)[C@H](CCCNC(=N)N)NC(=O)[C@H](CCC(N)=O)NC(=O)[C@@H](NC(=O)[C@H](C)NC(=O)[C@@H]1CSSC[C@H](NC(=O)[C@@H](N)CCCCNC(=O)CC[C@H](NC(=O)CCCCCCCCCCCCCCCCCCC(=O)O)C(=O)O)C(=O)N[C@@H](CC(N)=O)C(=O)N[C@@H]([C@@H](C)O)C(=O)N[C@@H](C)C(=O)N[C@@H]([C@@H](C)O)C(=O)N1)[C@@H](C)O)C(=O)N1CCC[C@H]1C(=O)N[C@@H](CO)C(=O)N[C@@H](CO)C(=O)N[C@H](C(=O)N[C@@H](CC(N)=O)C(=O)N[C@H](C(=O)NCC(=O)N[C@@H](CO)C(=O)N[C@@H](Cc1c[nH]cn1)C(=O)N[C@H](C(=O)N[C@@H](Cc1ccc(O)cc1)C(N)=O)[C@@H](C)O)C(C)C)[C@@H](C)O [Example 128] (H-K([γGlu-C20 diacid])CNTATCATQRLAEFLRHSSPNFGAIPSSTNVGSHTY-NH2; disulfide 2-7 (inferred); N-terminus assumed) | – | – | – | – |
| 9.30 | 116.0 | 116.0 | 116.0 | 7.23 | CC[C@H](C)[C@H](NC(=O)[C@H](C)NC(=O)CNC(=O)[C@H](Cc1ccccc1)NC(=O)[C@H](CC(N)=O)NC(=O)[C@@H]1CCCN1C(=O)[C@H](CO)NC(=O)[C@H](CO)NC(=O)[C@H](Cc1c[nH]cn1)NC(=O)[C@H](CCCNC(=N)N)NC(=O)[C@H](CC(C)C)NC(=O)[C@H](Cc1ccccc1)NC(=O)[C@H](CC(=O)O)NC(=O)[C@H](C)NC(=O)[C@H](CC(C)C)NC(=O)[C@H](CCCNC(=N)N)NC(=O)[C@H](CCC(N)=O)NC(=O)[C@@H](NC(=O)[C@H](C)NC(=O)[C@@H]1CSSC[C@H](NC(=O)[C@@H](N)CCCCNC(=O)CC[C@H](NC(=O)CCCCCCCCCCCCCCCCCCC(=O)O)C(=O)O)C(=O)N[C@@H](CC(N)=O)C(=O)N[C@@H]([C@@H](C)O)C(=O)N[C@@H](C)C(=O)N[C@@H]([C@@H](C)O)C(=O)N1)[C@@H](C)O)C(=O)N1CCC[C@H]1C(=O)N[C@@H](CO)C(=O)N[C@@H](CO)C(=O)N[C@H](C(=O)N[C@@H](CC(N)=O)C(=O)N[C@H](C(=O)NCC(=O)N1CCC[C@H]1C(=O)N[C@@H](CCCNC(=N)N)C(=O)N[C@H](C(=O)N[C@@H](Cc1ccc(O)cc1)C(N)=O)[C@@H](C)O)C(C)C)[C@@H](C)O [Example 129] (H-K([γGlu-C20 diacid])CNTATCATQRLADFLRHSSPNFGAIPSSTNVGPRTY-NH2; disulfide 2-7 (inferred); N-terminus assumed) | – | – | – | – |
